Measurements published in article PMC9569971, “New Oxazolo[5,4-d]pyrimidines as Potential Anticancer Agents: Their Design, Synthesis, and In Vitro Biological Activity Research” (International Journal of Molecular Sciences, 2022).

Experiments:
[1] = system: primary colon adenocarcinoma (HT29); assay: MTT viability assay, HT29; type: cell-based, human; details: for CC50: tested 1–500 µM
[2] = system: breast adenocarcinoma (MCF7); assay: MTT viability assay, MCF7; type: cell-based, human; details: Homo sapiens; MCF7, MTT, tested 1–500 µM
HT29 cells = assay: Migration (scratch) assay; type: cell-based, human; details: control T 155558.2, control T0 544366.45
Procedure: The scratch test was performed to verify that the tested compound 3g could inhibit the formation of metastases by the HT29 cell line. The seeded HT29 cells were incubated until they formed a monolayer over the entire surface of the well. Then, a scratch test was performed by making a scratch in the monolayer and measuring its width—that is, To, amounting to 544,366.45 μm^2. Freshly prepared compounds were added to the HT29 cells at concentrations of 10, 25, 50, and 100 μM. Breeding plates were incubated for 24 h. The next day, scratch width was measured again using the ImageJ open-source platform. […] The lowest cellular overgrowth of HT29 culture occurred at the concentration of 100 μM for the compound. Compound 3g inhibited the migration of HT29 cells more strongly than the reference drugs, showing that it has the potential to inhibit metastasis. The width of the scratch after 24 h when no compound was applied to the cells was used as a control (T = 155,558.2 μm^2).
All cell lines were grown in 5% CO2 at 95% humidity and 37 °C, with both morphology and confluence assessed twice per week. When the confluence was greater than 70%, adherent cell lines were detached from the bottle surface with a TrypLE solution and then used in assays or reduced. The cells were collected into centrifuge tubes and centrifuged at 1000× g for 5 min at room temperature. The supernatant was removed to dry. The cell pellets were then resuspended in an appropriate medium. The cells were counted using a Bürker chamber and resuspended in 96-well plates to a cell density of 10,000 cells per well for MTT assay. For the rhodamine accumulation test and the detection of apoptosis assay, cells were seeded at a density of 30,000 per well. In the migration assay, cells were seeded at a density of 20,000 per well, and monolayer formation was awaited.
After seeding, HT29 cells were incubated until they formed a monolayer over the entire surface of the well. A scratch was made on the surface overgrown with cells, and then photomicrographs of the scratch were taken using the EVOS FL microscope. The freshly prepared compound 3g and the reference drugs were added at concentrations of 10, 25, 50, and 100 µM. Then, they were incubated for 24 h, and micrographs were performed at that time using the EVOS FL microscope. The scratch width was measured using the ImageJ open-source platform. The measurement of scratch width was also performed after 24 h without adding compounds.

[3] = system: lung adenocarcinoma (A549); assay: MTT viability assay, A549; type: cell-based, human
[4] = MTT viability assay, L929; type: cell-based, murine; details: mouse, L929 fibroblasts, tested 1–500 µM

Cc1noc(N)c1-c1nc2c(NCCCN(C)C)ncnc2o1 [Compound 3g, 2-(5-Amino-3-methylisoxazol-4-yl)-7-N-[3-(N,N-dimethylamino)propyl]aminooxazolo[5,4-d]pyrimidine]
SI (selectivity index) ([1]; CC50 NHDF / CC50 HT29): 2.662
CC50 ([1]; HT29, MTT): 58.4 ± 8.75 µM
CC50 ([1]; Homo sapiens, HT-29, HT29, MTT): 58.4 µM
CC50 [2]: 209 ± 9.67 µM
scratch width after 24 h, mean (HT29 cells; 10 μM): 180844 μm^2
scratch width after 24 h, mean (HT29 cells; 25 μM): 218581.6 μm^2
scratch width after 24 h, mean (HT29 cells; 50 μM): 245687.8 μm^2
scratch width after 24 h, mean (HT29 cells; 100 μM): 314566.8 μm^2
SI (selectivity index) ([3]; CC50 NHDF / CC50 A549): 1.123
CC50 ([3]; Homo sapiens, A549, MTT, tested 1–500 µM): 138 ± 12.9 µM
CC50 [4]: 83.7 ± 4.42 µM
